Columns and labels:
[1] = Cytotoxicity assay (CCK-8), K562; type: cell-based; settings: human; K562 cells, CCK-8, 72 h; read-out: Cytotoxic results IC50, K562
Experimental: (§1) Cytotoxic activities of the isolated compounds 1–17 and trichostatin A (TSA, positive control) against 10 tumor cell lines (K562, MCF-7, A549, Huh-7, H1975, HeLa, HL7702, HL60, MOLT-4, and DU145) were tested. […]. Cytotoxicity was assayed with the CCK-8 (Dojindo, Japan) method. 10 Cell lines K562, MCF-7, A549, Huh-7, H1975, Hela, HL7702, HL60, MOLT-4, and DU145 were purchased from Shanghai Cell Bank, Chinese Academy of Sciences. Cells were routinely grown and maintained in RPMI or DMEM media with 10% fetal bovine serum and with 1% penicillin/streptomycin. All cell lines were incubated in a Thermo/ Forma Scientific CO2 water-jacketed incubator with 5% CO2 in air at 37 °C. A cell viability assay was determined with the CCK-8 (Dojindo, Japan) assay. Cells were seeded at a density of 400−800 cells/well in 384-well plates and treated with various concentrations of compounds or solvent control. After 72 h incubation, CCK-8 reagent was added, and absorbance was measured at 450 nm using an Envision 2104 multilabel reader (PerkinElmer, USA). Dose−response curves were plotted to determine the IC50 values using Prism 5.0 (GraphPad Software Inc., USA).

[2] = Cytotoxicity assay (CCK-8), MCF-7; type: cell-based; settings: human; MCF-7 cells, CCK-8, 72 h; read-out: Cytotoxic results IC50, MCF-7
Experimental: as §1

[3] = Cytotoxicity assay (CCK-8), A549; type: cell-based; settings: human; A549 cells, CCK-8, 72 h; read-out: Cytotoxic results IC50, A549
Experimental: as §1

[4] = Cytotoxicity assay (CCK-8), Huh-7; type: cell-based; settings: human; Huh-7 cells, CCK-8, 72 h; read-out: Cytotoxic results IC50, Huh-7
Experimental: as §1

[5] = Cytotoxicity assay (CCK-8), H1975; type: cell-based; settings: human; H1975 cells, CCK-8, 72 h; read-out: Cytotoxic results IC50, H1975
Experimental: as §1

[6] = Cytotoxicity assay (CCK-8), HeLa; type: cell-based; settings: human; HeLa cells, CCK-8, 72 h; read-out: Cytotoxic results IC50, HeLa
Experimental: as §1

[7] = Cytotoxicity assay (CCK-8), HL7702; type: cell-based; settings: human; HL7702 cells, CCK-8, 72 h; read-out: Cytotoxic results IC50, HL7702
Experimental: as §1

[8] = Cytotoxicity assay (CCK-8), HL60; type: cell-based; settings: human; HL60 cells, CCK-8, 72 h; read-out: Cytotoxic results IC50, HL60
Experimental: as §1

[9] = Cytotoxicity assay (CCK-8), MOLT-4; type: cell-based; settings: human; MOLT-4 cells, CCK-8, 72 h; read-out: Cytotoxic results IC50, MOLT-4
Experimental: as §1

[10] = Cytotoxicity assay (CCK-8), DU145; type: cell-based; settings: human; DU145 cells, CCK-8, 72 h; read-out: Cytotoxic results IC50, DU145
Experimental: as §1

[11] = Cytotoxicity against the panel of 10 tumor cell lines (summary statements); type: cell-based; settings: human
Experimental: as §1

[12] = test system: 10 tumor cell lines (K562, MCF-7, A549, Huh-7, H1975, HeLa, HL7702, HL60, MOLT-4, and DU145); experiment: as above; type: cell-based
Experimental: as §1

COX-2 = biological target: T1, COX-2 (Ovis aries, UniProt P79208); experiment: COX-2 inhibitory activity assay (COX (ovine) inhibitor screening kit); type: biochemical; settings: enzyme immunoassay
T1 construct: purchased
T1 sequence (P79208 17-603): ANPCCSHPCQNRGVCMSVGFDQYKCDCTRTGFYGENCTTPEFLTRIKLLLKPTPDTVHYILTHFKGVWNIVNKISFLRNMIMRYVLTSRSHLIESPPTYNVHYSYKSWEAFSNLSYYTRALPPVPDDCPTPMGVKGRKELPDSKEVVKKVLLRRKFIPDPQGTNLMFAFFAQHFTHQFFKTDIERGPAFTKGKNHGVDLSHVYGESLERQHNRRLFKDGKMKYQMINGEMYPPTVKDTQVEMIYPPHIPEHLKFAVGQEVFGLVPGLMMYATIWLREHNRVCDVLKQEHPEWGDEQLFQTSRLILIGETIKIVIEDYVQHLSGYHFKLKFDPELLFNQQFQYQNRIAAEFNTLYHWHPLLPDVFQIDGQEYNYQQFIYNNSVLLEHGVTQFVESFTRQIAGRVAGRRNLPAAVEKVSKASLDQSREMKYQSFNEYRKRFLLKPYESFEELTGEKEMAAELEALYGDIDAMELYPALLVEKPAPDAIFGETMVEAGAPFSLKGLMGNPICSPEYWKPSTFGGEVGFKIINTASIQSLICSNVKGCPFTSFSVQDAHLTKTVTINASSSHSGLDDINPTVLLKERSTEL
Experimental: According to the manufacturer's instructions. The test compounds were dissolved in DMSO and the final concentration was set as 10 μM.
The COX-2 enzyme is a well-established target for anti-inflammatory evaluation. […] The COX-2 enzyme catalyses the biosynthesis of PGH2 from arachidonic acid. In this assay, the PGF2a produced by the reduction of PGH2 with stannous chloride (SnCl2) was measured in this enzyme immunoassay. The stock solutions were prepared in dimethyl sulfoxide, and the final concentration was set as 10 mM for the isolated compounds. The percentage inhibition was calculated by comparison with control incubations.

K562 = experiment: Cytotoxicity assay (CCK-8), K562; type: cell-based; settings: K562 cells, CCK-8, 72 h; read-out: Cytotoxic results IC50, K562
Experimental: as §1

MCF-7 = experiment: Cytotoxicity assay (CCK-8), MCF-7; type: cell-based; settings: MCF-7 cells, CCK-8, 72 h; read-out: Cytotoxic results IC50, MCF-7
Experimental: as §1

A549 = experiment: Cytotoxicity assay (CCK-8), A549; type: cell-based; settings: A549 cells, CCK-8, 72 h; read-out: Cytotoxic results IC50, A549
Experimental: as §1

Huh-7 = experiment: Cytotoxicity assay (CCK-8), Huh-7; type: cell-based; settings: Huh-7 cells, CCK-8, 72 h; read-out: Cytotoxic results IC50, Huh-7
Experimental: as §1

H1975 = experiment: Cytotoxicity assay (CCK-8), H1975; type: cell-based; settings: H1975 cells, CCK-8, 72 h; read-out: Cytotoxic results IC50, H1975
Experimental: as §1

HeLa = experiment: Cytotoxicity assay (CCK-8), HeLa; type: cell-based; settings: HeLa cells, CCK-8, 72 h; read-out: Cytotoxic results IC50, HeLa
Experimental: as §1

HL7702 = experiment: Cytotoxicity assay (CCK-8), HL7702; type: cell-based; settings: HL7702 cells, CCK-8, 72 h; read-out: Cytotoxic results IC50, HL7702
Experimental: as §1

HL60 = experiment: Cytotoxicity assay (CCK-8), HL60; type: cell-based; settings: HL60 cells, CCK-8, 72 h; read-out: Cytotoxic results IC50, HL60
Experimental: as §1

MOLT-4 = experiment: Cytotoxicity assay (CCK-8), MOLT-4; type: cell-based; settings: MOLT-4 cells, CCK-8, 72 h; read-out: Cytotoxic results IC50, MOLT-4
Experimental: as §1

DU145 = experiment: Cytotoxicity assay (CCK-8), DU145; type: cell-based; settings: DU145 cells, CCK-8, 72 h; read-out: Cytotoxic results IC50, DU145
Experimental: as §1

| Compound | IC50 at 72 h [1] | IC50 at 72 h [2] | IC50 at 72 h [3] | IC50 at 72 h [4] | IC50 at 72 h [5] | IC50 at 72 h [6] | IC50 at 72 h [7] | IC50 at 72 h [8] | IC50 at 72 h [9] | IC50 at 72 h [10] | other results |
| --- | --- | --- | --- | --- | --- | --- | --- | --- | --- | --- | --- |
| COC(=O)c1c(C)cc(O)cc1Oc1cc(C)cc(O)c1 [Compound 3, Diorcinol L] | 43.5 µM | 10.5 µM | 17.7 µM | 5.7 µM | 15.3 µM | 7.1 µM | 68.2 µM | 9.6 µM | > 200 µM | 9.1 µM | IC50 at 72 h ([11]; range over Huh-7, HeLa, DU145 and HL60 cells, read-out: Cytotoxicities IC50 values against Huh-7, HeLa, DU145 and HL60 cells): 5.7 to 9.6 µM; IC50 at 72 h ([11]; range over the tumor cell lines of Table 3, read-out: Cytotoxicities IC50 values in the range over the cell lines): 5.7 to 68.2 µM; Activities against other five cell lines (in words) ([12]; cell lines other than Huh-7, HeLa, DU145 and HL60): weak activities |
| Cc1cc(O)c(O)c2oc3c(C(=O)O)cc(O)cc3c12 [Compound 6, Porric acid E] |  |  |  |  |  |  |  |  |  |  | IC50 (COX-2): 3.3 µM |
| Cc1cc(CO)c2c(=O)c3c(O)cccc3oc2c1 [Compound 8, 1-Hydroxy-6-methyl-8-hydroxy-methylxanthone] | > 200 µM | 141 µM | 128 µM | 122 µM | > 200 µM | 14.3 µM | 33.8 µM | > 200 µM | > 200 µM | > 200 µM | Cytotoxicities against HeLa and HL7702 cells (in words) ([12]; HeLa and HL7702 cells): weak selective cytotoxicities |
| CC(/C=C/C(=O)NO)=C\[C@@H](C)C(=O)c1ccc(N(C)C)cc1 [TSA, trichostatin A, reference compound] |  |  |  |  |  |  |  |  |  |  | IC50 (K562): 0.1 µM; IC50 (MCF-7): 0.7 µM; IC50 (A549): 0.3 µM; IC50 (Huh-7): 0.08 µM; IC50 (H1975): 0.09 µM; IC50 (HeLa): 0.08 µM; IC50 (HL7702): 0.09 µM; IC50 (HL60): 0.04 µM; IC50 (MOLT-4): 0.03 µM; IC50 (DU145): 0.04 µM |
